For this assay, the target named is Mitogen-activated protein kinase 15 (Homo sapiens) (UniProt Q8TD08). Description: Inhibition of human recombinant N-terminal FLAG-tagged ERK7 expressed in Sf9 insect cells at 0.1 uM incubated for 60 mins by TR-FRET based LanthaScreen Eu kinase binding assay relative to control. (In general: Time-resolved FRET reads energy transfer from a long-lived donor to a nearby acceptor.)

SMILES strings stand for the structures.

This passage reports inhibition results from ChEMBL document CHEMBL4673352, “Discovery of AZD4573, a Potent and Selective Inhibitor of CDK9 That Enables Short Duration of Target Engagement for the Treatment of Hematological Malignancies” (J Med Chem, 2020).

One may read the inhibition as the change of the read-out against control, counted positive when it falls.

Mitogen-activated protein kinase 15 (Homo sapiens), sequence (Q8TD08 whole entry): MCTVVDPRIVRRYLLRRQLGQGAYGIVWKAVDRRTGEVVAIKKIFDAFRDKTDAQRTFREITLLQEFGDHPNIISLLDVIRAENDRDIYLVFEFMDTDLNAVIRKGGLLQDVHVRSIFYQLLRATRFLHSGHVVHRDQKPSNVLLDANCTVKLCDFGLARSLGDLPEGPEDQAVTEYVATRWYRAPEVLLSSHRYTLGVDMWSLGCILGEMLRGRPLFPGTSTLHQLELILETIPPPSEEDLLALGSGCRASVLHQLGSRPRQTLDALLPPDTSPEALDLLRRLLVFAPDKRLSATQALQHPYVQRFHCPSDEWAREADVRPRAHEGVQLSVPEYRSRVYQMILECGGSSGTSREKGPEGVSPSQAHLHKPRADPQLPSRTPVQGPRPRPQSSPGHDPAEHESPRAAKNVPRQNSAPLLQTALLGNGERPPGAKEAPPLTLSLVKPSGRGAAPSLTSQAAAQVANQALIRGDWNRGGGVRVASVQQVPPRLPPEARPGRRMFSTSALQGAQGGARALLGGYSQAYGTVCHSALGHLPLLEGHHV

As for `CC(=O)N[C@@H]1CCC[C@H](C(=O)Nc2cc(-c3cnn4c3CC(C)(C)C4)c(Cl)cn2)C1` [ZEMIRCICLIB], the inhibition is 83%.
